Several values for one entry are separate records, joined by “and”; a condition that tells them apart may be missing. Identical values can stand only once. Inconclusive results and toxic doses are left out.
Test system: mice, LPC-1 plasma cell tumor ip, median survival T/C
Assay: NCI In Vivo Anticancer Drug Screen. Data for tumor model Lieberman Plasma Cell No. 1 (LPC-1) (intraperitoneal) in unknown mice
Settings: endpoint: median survival time, higher = longer survival
Protocol: The antitumor activity of compounds was measured in mice bearing transplantable tumors. Survival or tumor size were measured and the results are expressed as the measurement made in the treated group (T) divided by the measurement made in the vehicle treated control group (C). The tumor model used in this assay is Lieberman Plasma Cell No. 1 (LPC-1) (intraperitoneal) in unknown mice

[1] = dose: 33.0 mg/kg/injection, schedule: Q01DX028 (sc), vehicle: carboxymethylcellulose (CMC)
[2] = dose: 6.25 mg/kg/injection, schedule: Q01DX028 (sc), vehicle: carboxymethylcellulose (CMC)
[3] = dose: 12.5 mg/kg/injection, schedule: Q01DX028 (sc), vehicle: carboxymethylcellulose (CMC)
[4] = dose: 25.0 mg/kg/injection, schedule: Q01DX028 (sc), vehicle: carboxymethylcellulose (CMC)

Structure (SMILES): COC(=O)c1nc(-c2ccc3c(n2)C(=O)C(N)=C(OC)C3=O)c(N)c(-c2ccc(OC)c(OC)c2O)c1C
- T/C (dose: 0.39 mg/kg/injection, schedule: Q01DX028 (sc), vehicle: other): 100 % of control
- T/C (dose: 0.65 mg/kg/injection, schedule: Q01DX028 (sc), vehicle: other): 100 % of control
- T/C (dose: 1.08 mg/kg/injection, schedule: Q01DX028 (sc), vehicle: other): 100 % of control
- T/C (dose: 1.8 mg/kg/injection, schedule: Q01DX028 (sc), vehicle: other): 100 % of control
- T/C (dose: 3.0 mg/kg/injection, schedule: Q01DX028 (sc), vehicle: other): 100 % of control
- T/C (dose: 5.0 mg/kg/injection, schedule: Q01DX028 (sc), vehicle: other): 102 % of control

Structure (SMILES): CCN(CC)c1ccc2cc3ccc(=[N+](CC)CC)cc-3oc2c1
- T/C (dose: 1.0 mg/kg/injection, schedule: Q01DX028 (sc), vehicle: methylcellulose (MC)): 97 % of control
- T/C (dose: 2.0 mg/kg/injection, schedule: Q01DX028 (sc), vehicle: methylcellulose (MC)): 93 % of control
- T/C (dose: 4.0 mg/kg/injection, schedule: Q01DX028 (sc), vehicle: methylcellulose (MC)): 89 % of control
- T/C (dose: 8.0 mg/kg/injection, schedule: Q01DX028 (sc), vehicle: methylcellulose (MC)): 87 % of control

Structure (SMILES): O=NN(CCF)C(=O)NC1CCCCC1
- T/C [1]: 97 % of control

Structure (SMILES): CS(=O)(=O)OCCN(CCOS(C)(=O)=O)c1ccccc1
- T/C (dose: 3.12 mg/kg/injection, schedule: Q01DX028 (sc), vehicle: carboxymethylcellulose (CMC)): 113 % of control
- T/C [2]: 161 % of control
- T/C [3]: 155 % of control
- T/C (dose: 15.0 mg/kg/injection, schedule: Q01DX028 (sc), vehicle: carboxymethylcellulose (CMC)): 184 % of control
- T/C (dose: 22.0 mg/kg/injection, schedule: Q01DX028 (sc), vehicle: carboxymethylcellulose (CMC)): 194 % of control
- T/C [4]: 105 % of control
- T/C [1]: 110 % of control

Structure (SMILES): CN(Cc1cnc2nc(N)nc(N)c2n1)c1ccc(C(=O)N[C@@H](CCC(=O)O)C(=O)O)cc1
- T/C (dose: 0.12 mg/kg/injection, schedule: Q01DX028 (sc), vehicle: other): 105 % of control
- T/C (dose: 1.0 mg/kg/injection, schedule: Q01DX028 (sc), vehicle: other): 98 % of control

Structure (SMILES): CC1(C)CC(C)(c2ccc(O)cc2)c2ccccc2O1 (stereo not given)
- T/C (dose: 200.0 mg/kg/injection, schedule: Q01DX028 (sc), vehicle: steriod suspending solution): 114 % of control
- T/C (dose: 400.0 mg/kg/injection, schedule: Q01DX028 (sc), vehicle: steriod suspending solution): 114 % of control

Structure (SMILES): CS(=O)(=O)OCCN(CCOS(C)(=O)=O)c1ccc(/C=N/Nc2ncnc3nc[nH]c23)cc1
- T/C (dose: 5.0 mg/kg/injection, schedule: Q03HX056 (sc), vehicle: other): 111 % of control
- T/C (dose: 8.0 mg/kg/injection, schedule: Q01DX028 (sc), vehicle: carboxymethylcellulose (CMC)): 186 % of control
- T/C (dose: 10.0 mg/kg/injection, schedule: Q03HX008 (sc), vehicle: other): 100 % of control
- T/C (dose: 10.0 mg/kg/injection, schedule: Q03HX056 (sc), vehicle: other): 116 % of control
- T/C (dose: 20.0 mg/kg/injection, schedule: Q03HX008 (sc), vehicle: other): 102 % of control
- T/C (dose: 20.0 mg/kg/injection, schedule: Q03HX056 (sc), vehicle: other): 150 % of control
- T/C (dose: 36.0 mg/kg/injection, schedule: Q01DX028 (sc), vehicle: carboxymethylcellulose (CMC)): 171 % of control
- T/C (dose: 40.0 mg/kg/injection, schedule: Q03HX008 (sc), vehicle: other): 116 % of control
- T/C (dose: 55.0 mg/kg/injection, schedule: Q01DX028 (sc), vehicle: carboxymethylcellulose (CMC)): 210 % of control
- T/C (dose: 79.0 mg/kg/injection, schedule: Q01DX028 (sc), vehicle: other): 158 % of control
- T/C (dose: 80.0 mg/kg/injection, schedule: Q01DX001 (sc), vehicle: other): 94 % of control
- T/C (dose: 80.0 mg/kg/injection, schedule: Q01DX028 (ip), vehicle: other): 177 % of control
- T/C (dose: 80.0 mg/kg/injection, schedule: Q01DX028 (sc), vehicle: carboxymethylcellulose (CMC)): 218 % of control and 102 % of control
- T/C (dose: 80.0 mg/kg/injection, schedule: Q03DX004 (sc), vehicle: other): 111 % of control
- T/C (dose: 80.0 mg/kg/injection, schedule: Q03HX008 (sc), vehicle: other): 108 % of control
- T/C (dose: 119.0 mg/kg/injection, schedule: Q01DX028 (sc), vehicle: other): 210 % of control
- T/C (dose: 120.0 mg/kg/injection, schedule: Q01DX028 (ip), vehicle: other): 166 % of control
- T/C (dose: 120.0 mg/kg/injection, schedule: Q01DX028 (oral), vehicle: other): 122 % of control
- T/C (dose: 120.0 mg/kg/injection, schedule: Q01DX028 (sc), vehicle: carboxymethylcellulose (CMC)): 175 % of control and 252 % of control
- T/C (dose: 120.0 mg/kg/injection, schedule: Q01DX028 (sc), vehicle: other): 189 % of control
- T/C (dose: 120.0 mg/kg/injection, schedule: Q03DX004 (sc), vehicle: other): 116 % of control
- T/C (dose: 160.0 mg/kg/injection, schedule: Q01DX001 (sc), vehicle: other): 97 % of control
- T/C (dose: 179.0 mg/kg/injection, schedule: Q01DX028 (sc), vehicle: other): 187 % of control
- T/C (dose: 180.0 mg/kg/injection, schedule: Q01DX028 (ip), vehicle: other): 111 % of control
- T/C (dose: 180.0 mg/kg/injection, schedule: Q01DX028 (sc), vehicle: carboxymethylcellulose (CMC)): 164 % of control and 238 % of control
- T/C (dose: 180.0 mg/kg/injection, schedule: Q01DX028 (sc), vehicle: other): 166 % of control
- T/C (dose: 180.0 mg/kg/injection, schedule: Q03DX004 (sc), vehicle: other): 116 % of control
- T/C (dose: 269.0 mg/kg/injection, schedule: Q01DX028 (sc), vehicle: other): 166 % of control
- T/C (dose: 270.0 mg/kg/injection, schedule: Q01DX028 (ip), vehicle: other): 122 % of control
- T/C (dose: 270.0 mg/kg/injection, schedule: Q01DX028 (oral), vehicle: other): 119 % of control
- T/C (dose: 270.0 mg/kg/injection, schedule: Q01DX028 (sc), vehicle: carboxymethylcellulose (CMC)): 202 % of control
- T/C (dose: 270.0 mg/kg/injection, schedule: Q03DX004 (sc), vehicle: other): 116 % of control
- T/C (dose: 320.0 mg/kg/injection, schedule: Q01DX001 (sc), vehicle: other): 105 % of control
- T/C (dose: 640.0 mg/kg/injection, schedule: Q01DX001 (sc), vehicle: other): 105 % of control

Structure (SMILES): CS(=O)(=O)OCCC(=O)NCNC(=O)CCOS(C)(=O)=O
- T/C [2]: 184 % of control
- T/C (dose: 12.5 mg/kg/injection, schedule: Q01DX012 (sc), vehicle: carboxymethylcellulose (CMC)): 105 % of control
- T/C [3]: 223 % of control and 276 % of control
- T/C (dose: 25.0 mg/kg/injection, schedule: Q01DX012 (sc), vehicle: carboxymethylcellulose (CMC)): 328 % of control
- T/C [4]: 200 % of control and 230 % of control
- T/C (dose: 50.0 mg/kg/injection, schedule: Q01DX012 (sc), vehicle: carboxymethylcellulose (CMC)): 110 % of control
- T/C (dose: 50.0 mg/kg/injection, schedule: Q01DX028 (sc), vehicle: carboxymethylcellulose (CMC)): 107 % of control and 121 % of control
- T/C (dose: 75.0 mg/kg/injection, schedule: Q01DX028 (sc), vehicle: carboxymethylcellulose (CMC)): 87 % of control

Structure (SMILES): Nc1nc(=S)c2ncn(C3OC(CO)C(O)C3O)c2[nH]1 (stereo not given)
- T/C (dose: 3.0 mg/kg/injection, schedule: Q01DX028 (sc), vehicle: water): 121 % of control
- T/C (dose: 5.0 mg/kg/injection, schedule: Q01DX028 (sc), vehicle: water): 110 % of control
- T/C (dose: 8.4 mg/kg/injection, schedule: Q01DX028 (sc), vehicle: water): 110 % of control
- T/C (dose: 14.0 mg/kg/injection, schedule: Q01DX028 (sc), vehicle: water): 100 % of control
- T/C (dose: 23.0 mg/kg/injection, schedule: Q01DX028 (sc), vehicle: water): 100 % of control

Structure (SMILES): O=C(O)c1[nH]c(=O)[nH]c(=O)c1F
- T/C (dose: 1.8 mg/kg/injection, schedule: Q01DX028 (sc), vehicle: saline): 180 % of control
- T/C (dose: 3.0 mg/kg/injection, schedule: Q01DX028 (sc), vehicle: saline): 123 % of control
- T/C (dose: 5.0 mg/kg/injection, schedule: Q01DX028 (sc), vehicle: saline): 119 % of control
- T/C (dose: 8.4 mg/kg/injection, schedule: Q01DX028 (sc), vehicle: saline): 97 % of control and 114 % of control
- T/C (dose: 14.0 mg/kg/injection, schedule: Q01DX028 (sc), vehicle: saline): 93 % of control and 104 % of control
- T/C (dose: 23.0 mg/kg/injection, schedule: Q01DX028 (sc), vehicle: saline): 95 % of control and 102 % of control
- T/C (dose: 39.0 mg/kg/injection, schedule: Q01DX028 (sc), vehicle: saline): 93 % of control
- T/C (dose: 65.0 mg/kg/injection, schedule: Q01DX028 (sc), vehicle: saline): 88 % of control

Structure (SMILES): CNNCc1ccc(C(=O)NC(N)=O)cc1
- T/C (dose: 50.0 mg/kg/injection, schedule: Q01DX028 (sc), vehicle: saline): 100 % of control
- T/C (dose: 100.0 mg/kg/injection, schedule: Q01DX028 (sc), vehicle: saline): 105 % of control
- T/C (dose: 200.0 mg/kg/injection, schedule: Q01DX028 (sc), vehicle: saline): 102 % of control

Source: PubChem BioAssay AID344 (DTP/NCI, 2004)
